Assay results reported in PubChem BioAssay (NCI).
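All cell lines were grown in 96-well plates and treated with compound for 48 hours. Abbreviation: GI50, concentration required for 50% inhibition of growth. TGI denotes the concentration required for complete inhibition of growth.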

Columns and labels:
Assay in all cases: NCI anticancer screen, dose series, 48 h
786-0 renal = test system: 786-0 renal
A498 renal = test system: A498 renal
A549 NSCLC = test system: A549 NSCLC
ACHN renal = test system: ACHN renal
BT-549 breast = test system: BT-549 breast
CAKI-1 renal = test system: CAKI-1 renal
CCRF-CEM leukemia = test system: CCRF-CEM leukemia
COLO 205 colon = test system: COLO 205 colon
DU-145 prostate = test system: DU-145 prostate
EKVX NSCLC = test system: EKVX NSCLC
HCC-2998 colon = test system: HCC-2998 colon
HCT-116 colon = test system: HCT-116 colon
HCT-15 colon = test system: HCT-15 colon
HL-60(TB) leukemia = test system: HL-60(TB) leukemia
HOP-62 NSCLC = test system: HOP-62 NSCLC
HOP-92 NSCLC = test system: HOP-92 NSCLC
HS 578T breast = test system: HS 578T breast
HT29 colon = test system: HT29 colon
IGROV1 ovarian = test system: IGROV1 ovarian
K-562 leukemia = test system: K-562 leukemia
KM12 colon = test system: KM12 colon
LOX IMVI melanoma = test system: LOX IMVI melanoma
M14 melanoma = test system: M14 melanoma
MALME-3M melanoma = test system: MALME-3M melanoma
MCF7 breast = test system: MCF7 breast
MDA-MB-231 breast = test system: MDA-MB-231 breast
MDA-MB-435 = test system: MDA-MB-435
MOLT-4 leukemia = test system: MOLT-4 leukemia
NCI-H226 lung = test system: NCI-H226 lung
NCI-H23 lung = test system: NCI-H23 lung
NCI-H460 lung = test system: NCI-H460 lung
NCI-H522 lung = test system: NCI-H522 lung
NCI/ADR-RES ovarian = test system: NCI/ADR-RES ovarian
OVCAR-3 ovarian = test system: OVCAR-3 ovarian
OVCAR-4 ovarian = test system: OVCAR-4 ovarian
OVCAR-5 ovarian = test system: OVCAR-5 ovarian
OVCAR-8 ovarian = test system: OVCAR-8 ovarian
PC-3 prostate = test system: PC-3 prostate
RPMI-8226 leukemia = test system: RPMI-8226 leukemia
RXF 393 renal = test system: RXF 393 renal
SF-268 CNS = test system: SF-268 CNS
SF-295 CNS = test system: SF-295 CNS
SF-539 CNS = test system: SF-539 CNS
SK-MEL-2 melanoma = test system: SK-MEL-2 melanoma
SK-MEL-28 melanoma = test system: SK-MEL-28 melanoma
SK-MEL-5 melanoma = test system: SK-MEL-5 melanoma
SK-OV-3 ovarian = test system: SK-OV-3 ovarian
SN12C renal = test system: SN12C renal
SNB-19 CNS = test system: SNB-19 CNS
SNB-75 CNS = test system: SNB-75 CNS
SW-620 colon = test system: SW-620 colon
T-47D breast = test system: T-47D breast
TK-10 renal = test system: TK-10 renal
U251 CNS = test system: U251 CNS
UACC-257 melanoma = test system: UACC-257 melanoma
UACC-62 melanoma = test system: UACC-62 melanoma
UO-31 renal = test system: UO-31 renal

Question: With `CC(C)n1cc(-c2ccc3c(c2)N(C)CC3)c2c(NS(=O)(=O)c3ccn(C)n3)ccnc21` as the molecule, how does the GI50 (786-0 renal) read?
Answer: 43.7 µM

Question: What about the TGI (786-0 renal) of the same molecule?
Answer: > 100 µM

Question: What about the GI50 (A498 renal) of the same molecule?
Answer: 36.3 µM

Question: What about the TGI (A498 renal) of the same molecule?
Answer: > 100 µM

Question: And the GI50 (A549 NSCLC)?
Answer: 44 µM

Question: What about the TGI (A549 NSCLC) of the same molecule?
Answer: > 100 µM

Question: What about the GI50 (ACHN renal) of the same molecule?
Answer: 49.8 µM

Question: And the TGI (ACHN renal)?
Answer: > 100 µM

Question: And the GI50 (BT-549 breast)?
Answer: 25.3 µM

Question: What about the TGI (BT-549 breast) of the same molecule?
Answer: > 100 µM

Question: What about the GI50 (CAKI-1 renal) of the same molecule?
Answer: 44.3 µM

Question: And the TGI (CAKI-1 renal)?
Answer: > 100 µM

Question: And the GI50 (CCRF-CEM leukemia)?
Answer: > 100 µM

Question: And the TGI (CCRF-CEM leukemia)?
Answer: > 100 µM

Question: And the GI50 (COLO 205 colon)?
Answer: > 100 µM

Question: And the TGI (COLO 205 colon)?
Answer: > 100 µM

Question: And the GI50 (DU-145 prostate)?
Answer: > 100 µM

Question: What about the TGI (DU-145 prostate) of the same molecule?
Answer: > 100 µM

Question: And the GI50 (EKVX NSCLC)?
Answer: 28.2 µM

Question: What about the TGI (EKVX NSCLC) of the same molecule?
Answer: > 100 µM

Question: And the GI50 (HCC-2998 colon)?
Answer: > 100 µM

Question: What about the TGI (HCC-2998 colon) of the same molecule?
Answer: > 100 µM

Question: And the GI50 (HCT-116 colon)?
Answer: 48 µM

Question: What about the TGI (HCT-116 colon) of the same molecule?
Answer: > 100 µM

Question: What about the GI50 (HCT-15 colon) of the same molecule?
Answer: 35.9 µM

Question: And the TGI (HCT-15 colon)?
Answer: > 100 µM

Question: What about the GI50 (HL-60(TB) leukemia) of the same molecule?
Answer: 59.2 µM

Question: And the TGI (HL-60(TB) leukemia)?
Answer: > 100 µM

Question: What about the GI50 (HOP-62 NSCLC) of the same molecule?
Answer: > 100 µM

Question: What about the TGI (HOP-62 NSCLC) of the same molecule?
Answer: > 100 µM

Question: And the GI50 (HOP-92 NSCLC)?
Answer: 24.6 µM

Question: What about the TGI (HOP-92 NSCLC) of the same molecule?
Answer: > 100 µM

Question: And the GI50 (HS 578T breast)?
Answer: 37 µM

Question: What about the TGI (HS 578T breast) of the same molecule?
Answer: > 100 µM

Question: What about the GI50 (HT29 colon) of the same molecule?
Answer: 71.9 µM

Question: What about the TGI (HT29 colon) of the same molecule?
Answer: > 100 µM

Question: What about the GI50 (IGROV1 ovarian) of the same molecule?
Answer: 59.1 µM

Question: And the TGI (IGROV1 ovarian)?
Answer: > 100 µM

Question: And the GI50 (K-562 leukemia)?
Answer: 79.9 µM

Question: What about the TGI (K-562 leukemia) of the same molecule?
Answer: > 100 µM

Question: What about the GI50 (KM12 colon) of the same molecule?
Answer: 47.9 µM

Question: And the TGI (KM12 colon)?
Answer: > 100 µM

Question: And the GI50 (LOX IMVI melanoma)?
Answer: 47.8 µM

Question: What about the TGI (LOX IMVI melanoma) of the same molecule?
Answer: > 100 µM

Question: What about the GI50 (M14 melanoma) of the same molecule?
Answer: 44.5 µM

Question: What about the TGI (M14 melanoma) of the same molecule?
Answer: > 100 µM

Question: What about the GI50 (MALME-3M melanoma) of the same molecule?
Answer: > 100 µM

Question: And the TGI (MALME-3M melanoma)?
Answer: > 100 µM

Question: And the GI50 (MCF7 breast)?
Answer: 31.5 µM

Question: What about the TGI (MCF7 breast) of the same molecule?
Answer: > 100 µM

Question: What about the GI50 (MDA-MB-231 breast) of the same molecule?
Answer: 76.1 µM

Question: What about the TGI (MDA-MB-231 breast) of the same molecule?
Answer: > 100 µM

Question: And the GI50 (MDA-MB-435)?
Answer: 83 µM

Question: And the TGI (MDA-MB-435)?
Answer: > 100 µM

Question: And the GI50 (MOLT-4 leukemia)?
Answer: 65.7 µM

Question: What about the TGI (MOLT-4 leukemia) of the same molecule?
Answer: > 100 µM

Question: What about the GI50 (NCI-H226 lung) of the same molecule?
Answer: 39.4 µM

Question: And the TGI (NCI-H226 lung)?
Answer: > 100 µM

Question: What about the GI50 (NCI-H23 lung) of the same molecule?
Answer: 74.6 µM

Question: What about the TGI (NCI-H23 lung) of the same molecule?
Answer: > 100 µM

Question: And the GI50 (NCI-H460 lung)?
Answer: 47.9 µM

Question: And the TGI (NCI-H460 lung)?
Answer: > 100 µM

Question: What about the GI50 (NCI-H522 lung) of the same molecule?
Answer: 49.3 µM

Question: And the TGI (NCI-H522 lung)?
Answer: > 100 µM

Question: What about the GI50 (NCI/ADR-RES ovarian) of the same molecule?
Answer: 49.5 µM

Question: And the TGI (NCI/ADR-RES ovarian)?
Answer: > 100 µM

Question: And the GI50 (OVCAR-3 ovarian)?
Answer: 60.4 µM

Question: What about the TGI (OVCAR-3 ovarian) of the same molecule?
Answer: > 100 µM

Question: What about the GI50 (OVCAR-4 ovarian) of the same molecule?
Answer: 52.5 µM

Question: And the TGI (OVCAR-4 ovarian)?
Answer: > 100 µM

Question: And the GI50 (OVCAR-5 ovarian)?
Answer: > 100 µM

Question: What about the TGI (OVCAR-5 ovarian) of the same molecule?
Answer: > 100 µM

Question: What about the GI50 (OVCAR-8 ovarian) of the same molecule?
Answer: 72.7 µM

Question: What about the TGI (OVCAR-8 ovarian) of the same molecule?
Answer: > 100 µM

Question: What about the GI50 (PC-3 prostate) of the same molecule?
Answer: 45.2 µM

Question: What about the TGI (PC-3 prostate) of the same molecule?
Answer: > 100 µM

Question: And the GI50 (RPMI-8226 leukemia)?
Answer: 54.2 µM

Question: And the TGI (RPMI-8226 leukemia)?
Answer: > 100 µM

Question: And the GI50 (RXF 393 renal)?
Answer: 29.1 µM

Question: What about the TGI (RXF 393 renal) of the same molecule?
Answer: > 100 µM

Question: What about the GI50 (SF-268 CNS) of the same molecule?
Answer: 62 µM

Question: And the TGI (SF-268 CNS)?
Answer: > 100 µM

Question: And the GI50 (SF-295 CNS)?
Answer: 27.4 µM

Question: What about the TGI (SF-295 CNS) of the same molecule?
Answer: > 100 µM

Question: What about the GI50 (SF-539 CNS) of the same molecule?
Answer: 64.4 µM

Question: And the TGI (SF-539 CNS)?
Answer: > 100 µM

Question: And the GI50 (SK-MEL-2 melanoma)?
Answer: 56.6 µM

Question: And the TGI (SK-MEL-2 melanoma)?
Answer: > 100 µM

Question: What about the GI50 (SK-MEL-28 melanoma) of the same molecule?
Answer: 34.5 µM

Question: What about the TGI (SK-MEL-28 melanoma) of the same molecule?
Answer: > 100 µM

Question: What about the GI50 (SK-MEL-5 melanoma) of the same molecule?
Answer: 37.4 µM

Question: And the TGI (SK-MEL-5 melanoma)?
Answer: > 100 µM

Question: What about the GI50 (SK-OV-3 ovarian) of the same molecule?
Answer: > 100 µM

Question: What about the TGI (SK-OV-3 ovarian) of the same molecule?
Answer: > 100 µM

Question: And the GI50 (SN12C renal)?
Answer: 91.8 µM

Question: And the TGI (SN12C renal)?
Answer: > 100 µM

Question: What about the GI50 (SNB-19 CNS) of the same molecule?
Answer: > 100 µM

Question: And the TGI (SNB-19 CNS)?
Answer: > 100 µM

Question: What about the GI50 (SNB-75 CNS) of the same molecule?
Answer: 39.9 µM

Question: And the TGI (SNB-75 CNS)?
Answer: > 100 µM

Question: What about the GI50 (SW-620 colon) of the same molecule?
Answer: 69.7 µM

Question: What about the TGI (SW-620 colon) of the same molecule?
Answer: > 100 µM

Question: And the GI50 (T-47D breast)?
Answer: 29.7 µM

Question: What about the TGI (T-47D breast) of the same molecule?
Answer: > 100 µM

Question: What about the GI50 (TK-10 renal) of the same molecule?
Answer: > 100 µM

Question: And the TGI (TK-10 renal)?
Answer: > 100 µM

Question: And the GI50 (U251 CNS)?
Answer: 61.9 µM

Question: And the TGI (U251 CNS)?
Answer: > 100 µM

Question: And the GI50 (UACC-257 melanoma)?
Answer: > 100 µM

Question: And the TGI (UACC-257 melanoma)?
Answer: > 100 µM

Question: What about the GI50 (UACC-62 melanoma) of the same molecule?
Answer: 36.7 µM

Question: What about the TGI (UACC-62 melanoma) of the same molecule?
Answer: > 100 µM

Question: And the GI50 (UO-31 renal)?
Answer: 31.7 µM

Question: What about the TGI (UO-31 renal) of the same molecule?
Answer: > 100 µM
